In USRE48335E1, “Polymyxin derivatives as antimicrobial compounds” (priority 2014, dated 2020):
Converted amounts (≈) assume the structure as drawn. Positions of bridges follow the written chain, without caps; N, C: chain ends. Non-standard residues stand in square brackets, D forms with d. Residues, ends and D or L forms follow the SMILES beside them. *: point of attachment. Phenylacetyl(4-Me) = Cc1ccc(CC(=O)*)cc1; Heptanoyl(6-Me) = CC(C)CCCCC(=O)*; dNva = CCC[C@@H](N)C(=O)O; Heptanoyl = CCCCCCC(=O)*; Octanoyl = CCCCCCCC(=O)*; Dab = NCC[C@H](N)C(=O)O; Abu = CC[C@H](N)C(=O)O; Dap = NC[C@H](N)C(=O)O; Hexanoyl = CCCCCC(=O)*; X34 = Cc1ccccc1CC(=O)*; X44 = O=C(c1ccccc1Cl)*; X27 = Cc1ccccc1C(=O)*; X40 = O=C(c1ccccc1F)*

Columns and labels:
Acinetobacter baumannii = tested on: Acinetobacter baumannii
How it was run: (§1)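 Lipopeptide TFA salts are serially diluted in cation-adjusted Mueller-Hinton broth and inoculated per the CLSI M100-S18 broth microdilution method. The MIC is then recorded, with polymyxin B sulphate included as a control.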

Enterobacter cloacae = tested on: Enterobacter cloacae
How it was run: as §1

Pseudomonas aeruginosa = tested on: Pseudomonas aeruginosa
How it was run: as §1

SMILES | Minimum inhibitory concentration, Ab A ATCC 17978 (Acinetobacter baumannii) [mg/L] | Minimum inhibitory concentration, Ab ATCC 19606 (Acinetobacter baumannii) [mg/L] | Minimum inhibitory concentration, Ab FADDI-AB034 (Acinetobacter baumannii) [mg/L] | Minimum inhibitory concentration, Ec FADDI-EC001 (Enterobacter cloacae) [mg/L] | Minimum inhibitory concentration, Ec FADDI-EC003 (Enterobacter cloacae) [mg/L] | Minimum inhibitory concentration, Ec FADDI-EC006 (Enterobacter cloacae) [mg/L] | Minimum inhibitory concentration, Pa ATCC 27853 (Pseudomonas aeruginosa) [mg/L] | Minimum inhibitory concentration, Pa FADDI-PA022 (Pseudomonas aeruginosa) [mg/L] | Minimum inhibitory concentration, Pa FADDI-PA025 (Pseudomonas aeruginosa) [mg/L]
CCCCCCC(=O)N[C@@H](CCN)C(=O)N[C@H](C(=O)N[C@@H](CN)C(=O)N[C@H]1CCNC(=O)[C@H]([C@@H](C)O)NC(=O)[C@H](CCN)NC(=O)[C@H](CCN)NC(=O)[C@H](C)NC(=O)[C@@H](CC(C)C)NC(=O)[C@H](CCN)NC1=O)[C@@H](C)O [Compound 63] (Heptanoyl-[Dab]T[Dap][Dab][Dab][dL]A[Dab][Dab]T; lactam 4-C) | 1 (≈ 0.921 µM) | 2 (≈ 1.84 µM) | 1 (≈ 0.921 µM) | 0.5 (≈ 0.461 µM) | <0.125 | 0.5 (≈ 0.461 µM) | 0.5 (≈ 0.461 µM) | 2 (≈ 1.84 µM) | >32
CCCCCCC(=O)N[C@@H](CCN)C(=O)N[C@H](C(=O)N[C@@H](CN)C(=O)N[C@H]1CCNC(=O)[C@H]([C@@H](C)O)NC(=O)[C@H](CCN)NC(=O)[C@H](CCN)NC(=O)[C@H](CC)NC(=O)[C@@H](CC(C)C)NC(=O)[C@H](CCN)NC1=O)[C@@H](C)O [Compound 64] (Heptanoyl-[Dab]T[Dap][Dab][Dab][dL][Abu][Dab][Dab]T; lactam 4-C) | 0.5 (≈ 0.455 µM) | 0.5 (≈ 0.455 µM) | 1 (≈ 0.91 µM) | 0.5 (≈ 0.455 µM) | <0.125 | 0.25 (≈ 0.227 µM) | 1 (≈ 0.91 µM) | 2 (≈ 1.82 µM) | 8 (≈ 7.28 µM)
CC(C)CCCCC(=O)N[C@@H](CCN)C(=O)N[C@H](C(=O)N[C@@H](CN)C(=O)N[C@H]1CCNC(=O)[C@H]([C@@H](C)O)NC(=O)[C@H](CCN)NC(=O)[C@H](CCN)NC(=O)[C@H](C)NC(=O)[C@@H](CC(C)C)NC(=O)[C@H](CCN)NC1=O)[C@@H](C)O [Compound 65] ({Heptanoyl(6-Me)}-[Dab]T[Dap][Dab][Dab][dL]A[Dab][Dab]T; lactam 4-C) | 0.25 (≈ 0.227 µM) | 0.5 (≈ 0.455 µM) | 1 (≈ 0.91 µM) | 0.5 (≈ 0.455 µM) | <0.125 | 0.25 (≈ 0.227 µM) | 1 (≈ 0.91 µM) | 2 (≈ 1.82 µM) | 16 (≈ 14.6 µM)
CC[C@@H]1NC(=O)[C@@H](CC(C)C)NC(=O)[C@H](CCN)NC(=O)[C@@H](NC(=O)[C@H](CN)NC(=O)[C@@H](NC(=O)[C@H](CCN)NC(=O)CCCCC(C)C)[C@@H](C)O)CCNC(=O)[C@H]([C@@H](C)O)NC(=O)[C@H](CCN)NC(=O)[C@H](CCN)NC1=O [Compound 66] ({Heptanoyl(6-Me)}-[Dab]T[Dap][Dab][Dab][dL][Abu][Dab][Dab]T; lactam 4-C) | 0.25 (≈ 0.225 µM) | 0.25 (≈ 0.225 µM) | 0.5 (≈ 0.449 µM) | 0.5 (≈ 0.449 µM) | <0.125 | 0.25 (≈ 0.225 µM) | 1 (≈ 0.898 µM) | 2 (≈ 1.8 µM) | 4 (≈ 3.59 µM)
CCCCCC(=O)N[C@@H](CCN)C(=O)N[C@H](C(=O)N[C@@H](CN)C(=O)N[C@H]1CCNC(=O)[C@H]([C@@H](C)O)NC(=O)[C@H](CCN)NC(=O)[C@H](CCN)NC(=O)[C@H](C)NC(=O)[C@@H](CC(C)C)NC(=O)[C@H](CCN)NC1=O)[C@@H](C)O [Compound 67] (Hexanoyl-[Dab]T[Dap][Dab][Dab][dL]A[Dab][Dab]T; lactam 4-C) | 2 (≈ 1.87 µM) | 4 (≈ 3.73 µM) | 4 (≈ 3.73 µM) | <0.125 | 0.25 (≈ 0.233 µM) | 0.5 (≈ 0.467 µM) | 0.5 (≈ 0.467 µM) | 0.5 (≈ 0.467 µM) | 2 (≈ 1.87 µM)
CCCCCC(=O)N[C@@H](CCN)C(=O)N[C@H](C(=O)N[C@@H](CN)C(=O)N[C@H]1CCNC(=O)[C@H]([C@@H](C)O)NC(=O)[C@H](CCN)NC(=O)[C@H](CCN)NC(=O)[C@H](CC)NC(=O)[C@@H](CC(C)C)NC(=O)[C@H](CCN)NC1=O)[C@@H](C)O [Compound 68] (Hexanoyl-[Dab]T[Dap][Dab][Dab][dL][Abu][Dab][Dab]T; lactam 4-C) | 1 (≈ 0.921 µM) | 2 (≈ 1.84 µM) | 1 (≈ 0.921 µM) | 0.25 (≈ 0.23 µM) | <0.125 | <0.125 | 0.5 (≈ 0.461 µM) | 0.5 (≈ 0.461 µM) | 2 (≈ 1.84 µM)
CCCCCCCC(=O)N[C@@H](CCN)C(=O)N[C@H](C(=O)N[C@@H](CN)C(=O)N[C@H]1CCNC(=O)[C@H]([C@@H](C)O)NC(=O)[C@H](CCN)NC(=O)[C@H](CCN)NC(=O)[C@H](CC)NC(=O)[C@@H](CCC)NC(=O)[C@H](CCN)NC1=O)[C@@H](C)O [Compound 69] (Octanoyl-[Dab]T[Dap][Dab][Dab][dNva][Abu][Dab][Dab]T; lactam 4-C) | 0.5 (≈ 0.455 µM) | 0.5 (≈ 0.455 µM) | 0.25 (≈ 0.227 µM) | 0.25 (≈ 0.227 µM) | <0.125 | <0.125 | 0.5 (≈ 0.455 µM) | 0.5 (≈ 0.455 µM) | 8 (≈ 7.28 µM)
CC[C@@H]1NC(=O)[C@@H](CC(C)C)NC(=O)[C@H](CCN)NC(=O)[C@@H](NC(=O)[C@H](CN)NC(=O)[C@@H](NC(=O)[C@H](CCN)NC(=O)c2ccccc2Cl)[C@@H](C)O)CCNC(=O)[C@H]([C@@H](C)O)NC(=O)[C@H](CCN)NC(=O)[C@H](CCN)NC1=O [Compound 72] (X44-[Dab]T[Dap][Dab][Dab][dL][Abu][Dab][Dab]T; lactam 4-C) | 4 (≈ 3.55 µM) | 8 (≈ 7.11 µM) | 4 (≈ 3.55 µM) | 0.5 (≈ 0.444 µM) | 0.25 (≈ 0.222 µM) | 0.5 (≈ 0.444 µM) | 0.5 (≈ 0.444 µM) | 0.5 (≈ 0.444 µM) | 4 (≈ 3.55 µM)
CC[C@@H]1NC(=O)[C@@H](CC(C)C)NC(=O)[C@H](CCN)NC(=O)[C@@H](NC(=O)[C@H](CN)NC(=O)[C@@H](NC(=O)[C@H](CCN)NC(=O)c2ccccc2F)[C@@H](C)O)CCNC(=O)[C@H]([C@@H](C)O)NC(=O)[C@H](CCN)NC(=O)[C@H](CCN)NC1=O [Compound 73] (X40-[Dab]T[Dap][Dab][Dab][dL][Abu][Dab][Dab]T; lactam 4-C) | 4 (≈ 3.61 µM) | 8 (≈ 7.21 µM) | 4 (≈ 3.61 µM) | 0.25 (≈ 0.225 µM) | 0.25 (≈ 0.225 µM) | 1 (≈ 0.901 µM) | 0.5 (≈ 0.451 µM) | 1 (≈ 0.901 µM) | 4 (≈ 3.61 µM)
CC[C@@H]1NC(=O)[C@@H](CC(C)C)NC(=O)[C@H](CCN)NC(=O)[C@@H](NC(=O)[C@H](CN)NC(=O)[C@@H](NC(=O)[C@H](CCN)NC(=O)c2ccccc2C)[C@@H](C)O)CCNC(=O)[C@H]([C@@H](C)O)NC(=O)[C@H](CCN)NC(=O)[C@H](CCN)NC1=O [Compound 75] (X27-[Dab]T[Dap][Dab][Dab][dL][Abu][Dab][Dab]T; lactam 4-C) | 1 (≈ 0.905 µM) | 1 (≈ 0.905 µM) | 1 (≈ 0.905 µM) | 0.25 (≈ 0.226 µM) | 0.25 (≈ 0.226 µM) | 0.5 (≈ 0.452 µM) | 0.5 (≈ 0.452 µM) | 1 (≈ 0.905 µM) | 2 (≈ 1.81 µM)
CC[C@@H]1NC(=O)[C@@H](CC(C)C)NC(=O)[C@H](CCN)NC(=O)[C@@H](NC(=O)[C@H](CN)NC(=O)[C@@H](NC(=O)[C@H](CCN)NC(=O)Cc2ccccc2C)[C@@H](C)O)CCNC(=O)[C@H]([C@@H](C)O)NC(=O)[C@H](CCN)NC(=O)[C@H](CCN)NC1=O [Compound 76] (X34-[Dab]T[Dap][Dab][Dab][dL][Abu][Dab][Dab]T; lactam 4-C) | 1 (≈ 0.893 µM) | 2 (≈ 1.79 µM) | 1 (≈ 0.893 µM) | 0.25 (≈ 0.223 µM) | 0.25 (≈ 0.223 µM) | 0.5 (≈ 0.447 µM) | 0.5 (≈ 0.447 µM) | 1 (≈ 0.893 µM) | 4 (≈ 3.57 µM)
CC[C@@H]1NC(=O)[C@@H](CC(C)C)NC(=O)[C@H](CCN)NC(=O)[C@@H](NC(=O)[C@H](CN)NC(=O)[C@@H](NC(=O)[C@H](CCN)NC(=O)Cc2ccc(C)cc2)[C@@H](C)O)CCNC(=O)[C@H]([C@@H](C)O)NC(=O)[C@H](CCN)NC(=O)[C@H](CCN)NC1=O [Compound 80] ({Phenylacetyl(4-Me)}-[Dab]T[Dap][Dab][Dab][dL][Abu][Dab][Dab]T; lactam 4-C) | 1 (≈ 0.893 µM) | 4 (≈ 3.57 µM) | 2 (≈ 1.79 µM) | <0.125 | 0.25 (≈ 0.223 µM) | 4 (≈ 3.57 µM) | 0.5 (≈ 0.447 µM) | 1 (≈ 0.893 µM) | 2 (≈ 1.79 µM)
